“And” between values parts separate entries of the source, which are not always exact repeats. Equal entries are not always repeated.
SMILES	melting point
CNc1cc(-c2ccc(OC)cc2)nn(CC=Cc2ccc(Cl)cc2)c1=O [Example 117, 2-(4-chlorocinnamyl)-6-(4-methoxyphenyl)-4-methylamino-2H-pyridazin-3-one]	148.4 to 149.2 °C
CCCNC(=O)c1cc(-c2ccc(OC)cc2)nn(CC2CC2)c1=O [Example 67, 2-Cyclopropylmethyl-6-(4-methoxyphenyl)-4-n-propylcarbamoyl-2H-pyridazin-3-one]	101.3 to 101.6 °C
CNC(=S)c1cc(-c2ccc(OC)cc2)nn(CC(C)C)c1=O [Example 130, 2-isobutyl-6-(4-methoxyphenyl)-4-methylthiocarbamoyl-2H-pyridazin-3-one]	116 to 116.6 °C
CCCNC(=O)c1cc(-c2ccc(OC)cc2)nn(CC2CCCC2)c1=O [Example 74, 2-Cyclopentylmethyl-6-(4-methoxyphenyl)-4-n-propylcarbamoyl-2H-pyridazin-3-one]	109.9 to 110.2 °C
CCOC(=O)Nc1cc(-c2ccc(OC)cc2)nn(CC=C(C)C)c1=O [Example 93, 4-ethoxycarbonylamino-6-(4-methoxy-phenyl)-2-(3-methyl-2-butenyl)-2H-pyridazin-3-one]	130.2 to 131.2 °C
CNC(=O)c1cc(-c2ccc(OC)cc2)nn(Cc2ccc(NC(=O)c3cccnc3)cc2)c1=O [Example 81, 6-(4-Methoxyphenyl)-4-methylcarbamoyl-2-[4-(3-pyridylcarbonylamino)benzyl]-2H-pyridazin-3-one]	226.7 to 227.6 °C (dec.)
COc1ccc(-c2cc(NC(=O)OCCCCCc3ccccc3)c(=O)n(CC=Cc3ccc(Cl)cc3)n2)cc1 [Example 118, 2-(4-chlorocinnamyl)-6-(4-methoxyphenyl)-4-[N-(3-phenylpropyl)ethoxycarbonylamino]-2H-pyridazin-3-one]	113.5 to 114.2 °C
COc1ccc(-c2cc(C(=O)O)c(=O)n(CC=C(C)C)n2)cc1 [Example 92, 4-carboxy-6-(4-methoxyphenyl)-2-(3-methyl-2-butenyl)-2H-pyridazin-3-one]	153.5 to 156.6 °C
COC(=O)c1cc(-c2ccc(OC)c(OC)c2)nn(CC(C)C)c1=O [Example 11, 6-(3,4-Dimethoxyphenyl)-2-isobutyl-4-methoxycarbonyl-2H-pyridazin-3-one]	104.2 to 105.5 °C
CNC(=O)c1cc(-c2ccc(OC)cc2)nn(CCO)c1=O [Example 49, 2-(2-Hydroxyethyl)-6-(4-methoxyphenyl)-4-methylcarbamoyl-2H-pyridazin-3-one]	160.3 to 160.6 °C
COc1ccc(-c2cc(C(=O)O)c(=O)n(CC=Cc3ccc(Cl)cc3)n2)cc1 [Example 86, 4-Carboxy-2-(4-chlorocinnamyl)-6-(4-methoxyphenyl)-2H-pyridazin-3-one]	222.6 to 224 °C (dec.)
CCCCOC(=O)Nc1cc(-c2ccc(OC)cc2)nn(CC=Cc2ccc(Cl)cc2)c1=O [Example 89, 4-n-butoxycarbonylamino-2-(4-chlorocinnamyl)-6-(4-methoxyphenyl)-2H-pyridazin-3-one]	150.2 to 150.9 °C
CCOC(=O)c1cc(-c2ccc(OC)cc2)nn(Cc2ccc(Cl)cc2Cl)c1=O [Example 24, 2-(2,4-Dichlorobenzyl)-4-ethoxycarbonyl-6-(4-methoxyphenyl)-2H-pyridazin-3-one]	135.7 to 136.3 °C
COC(=O)c1cc(-c2ccc(OC)c(F)c2)nn(CC=Cc2ccc(Cl)cc2)c1=O [Example 33, 2-(4-Chlorocinnamyl)-6-(3-fluoro-4-methoxyphenyl)-4-methoxycarbonyl-2H-pyridazin-3-one]	131.3 to 132.3 °C
COc1ccc(-c2cc(C(N)=O)c(=O)n(CC=Cc3ccc(Cl)cc3)n2)cc1 [Example 42, 4-Carbamoyl-2-(4-chlorocinnamyl)-6-(4-methoxyphenyl)-2H-pyridazin-3-one]	195.1 to 195.5 °C
COc1ccc(-c2cc(C(N)=O)c(=O)n(CC3CCCC3)n2)cc1 [Example 40, 4-Carbamoyl-2-cyclopentylmethyl-6-(4-methoxyphenyl)-2H-pyridazin-3-one]	182.2 to 183.3 °C
CCOC(=O)c1cc(-c2ccc(OC)cc2)nn(C(C)C)c1=O [Example 9, 4-Ethoxycarbonyl-2-isopropyl-6-(4-methoxyphenyl)-2H-pyridazin-3-one]	140.6 to 141.1 °C
COc1ccc(-c2cc(NC(=O)OCc3ccc(SC)cc3)c(=O)n(CC=Cc3ccc(Cl)cc3)n2)cc1 [Example 91, 2-(4-chlorocinnamyl)-6-(4-methoxyphenyl)-4-[4-(methylthio)benzyloxycarbonylamino]-2H-pyridazin-3-one]	187.6 to 188.7 °C
CCOC(=O)c1cc(-c2ccc(OC)cc2)nn(CC(C)C)c1=O [Example 10, 4-Ethoxycarbonyl-2-isobutyl-6-(4-methoxyphenyl)-2H-pyridazin-3-one]	83 to 83.3 °C
CCOC(=O)c1cc(-c2ccc(OC)cc2)nn(CC2CC2)c1=O [Example 16, 2-Cyclopropylmethyl-4-ethoxycarbonyl-6-(4-methoxyphenyl)-2H-pyridazin-3-one]	80.1 to 80.9 °C
COc1ccc(-c2cc(C(=O)Nc3ccccc3)c(=O)n(CC3CC3)n2)cc1 [Example 71, 2-Cyclopropylmethyl-6-(4-methoxyphenyl)-4-phenylcarbamoyl-2H-pyridazin-3-one]	162.8 to 163.3 °C
COC(=O)c1cc(-c2ccc(OC)c(F)c2)nn(CC(C)C)c1=O [Example 12, 6-(3-Fluoro-4-methoxyphenyl)-2-isobutyl-4-methoxycarbonyl-2H-pyridaz in-3-one]	153.3 to 154.9 °C
CCC(=O)Nc1cc(-c2ccc(OC)cc2)nn(CC=Cc2ccc(Cl)cc2)c1=O [Example 114, 2-(4-chlorocinnamyl)-6-(4-methoxy-phenyl)-4-propionylamino-2H-pyridazin-3-one]	147.7 to 148.6 °C
CCOC(=O)c1cc(-c2ccc(OC)cc2)nn(CC=Cc2ccc(Cl)cc2)c1=O [Example 31, 2-(4-Chlorocinnamyl)-4-ethoxycarbonyl-6-(4-methoxyphenyl)-2H-pyridazin-3-one]	127 to 127.9 °C
COC(=O)c1cc(-c2ccc(OC)c(OC)c2)nn(CC2CC2)c1=O [Example 17, 2-Cyclopropylmethyl-6-(3,4-dimethoxyphenyl)-4-methoxycarbonyl-2H-pyridazin-3-one]	136.5 to 137.3 °C
COc1ccc(-c2cc(C(=O)NCc3ccccc3)c(=O)n(C)n2)cc1 [Example 77, 4-Benzylcarbamoyl-6-(4-methoxyphenyl)-2-methyl-2H-pyridazin-3-one]	144.8 to 145.8 °C
CCCn1nc(-c2ccc(OC)cc2)cc(C(=O)OC)c1=O [Example 4, 4-Methoxycarbonyl-6-(4-methoxyphenyl)-2-n-propyl-2H-pyridazin-3-one]	106.5 to 107.1 °C and 104.8 to 105.8 °C
CNC(=O)Cn1nc(-c2ccc(OC)cc2)cc(C(=O)NC)c1=O [Example 47, 6-(4-Methoxyphenyl)-4-methylcarbamoyl-2-methylcarbamoylmethyl-2H-pyridazin-3-one]	250.1 to 250.8 °C
COc1ccc(-c2cc(C(=O)NCc3ccccc3)c(=O)n(CC3CC3)n2)cc1 [Example 68, 4-Benzylcarbamoyl-2-cyclopropylmethyl-6-(4-methoxyphenyl)-2H-pyridazin-3-one]	119.7 to 120.1 °C

— patent US6403586B1, “Pyridazine derivatives and drugs containing the same as the active ingredient” (Kowa Co., Ltd., priority 1998, dated 2002)
